# From patent publication US6610710B2, “Phenylalanine derivatives” (Ajinomoto Co., Inc., priority 1999, dated 2003)
# Biological target: T1, integrin α4β1 (Jurkat cells) binding with recombinant human VCAM-1 (Homo sapiens, UniProt P05556+P13612)
# T1 construct: cell strain Jurkat (ATCC TIB-152) of human T cells, known to express integrin α4β1; endogenous in cells; host or cells: Jurkat (ATCC TIB-152), human T cells
# Test: VCAM antagonistic activity (VCAM-1/α4β1 binding assay), Jurkat cell adhesion
# Format: cell-based
# Settings: read-out: VCAM/α 4 β 1 antagonistic activity to integrin (IC50)
# Description: (Test Example) VCAM Antagonistic Activity (VCAM-1/α4β1 Binding Assay):
# The capacity of a test substance antagonistic to the binding of cell strain Jurkat (ATCC TIB-152) of human T cells, known to express integrin α4β1, with VCAM-1 was determined. 100 μl/well of a solution (500 ng/ml ) of recombinant human VCAM-1 (R & D systems) diluted with buffer A (0.1 M NaHCO3, pH 9.6) was added to a micro titer plate having 96 wells (Nunc Maxisorp). After the incubation at 4° C. overnight, unbound VCAM-1 was removed by once washing with PBS. After completion of the washing, a buffer (buffer B) obtained by diluting Block Ace® (Dainippon Pharmaceutical Co., Ltd.) with PBS to 1/4 concentration was added in an amount of 150 μl /well. After the incubation at room temperature for 1 hour, buffer B was removed and the plate was washed with PBS once.
# Jurkat cells were washed with Dulbecco modified Eagle medium (SIGMA, hereinafter referred to as “DMEM”) twice and then incubated in DMEM containing 10 μg/ml of Calcein-AM (Wako Pure Chemical Industries, Ltd.) at 37° C. in dark place for 30 minutes to label them with fluorescence. The cells were again suspended in a binding buffer (DMEM containing 20 mM HEPES, 0.1% BSA).
# 50 μl of a test substance of various concentrations obtained by the dilution with the binding buffer was added to the plate. Immediately thereafter, 50 μl (final volume: 100 μl/well) of the fluorescent Jurkat cells (4×10^6 cells/ml ) were added thereto, and they were incubated at room temperature for 30 minutes. After the shaking on a plate shaker (IKA MTS-4) at 800 rpm for 30 seconds, the solution was immediately removed to remove the unbound cells. The fluorescence quantity of the bound cells remaining in the wells was determined with a fluorescent plate reader (Wallac 1420 ARVO multi-label counter) (filter excitation wave length: 485 nm, emission wave length: 535 nm). The fluorescent strength thus obtained is proportional to the number of Jurkat cells bound to VCAM-1 and remaining on the plate. The binding rate of each test material in various concentrations was determined while the fluorescent strength of the test material-free well was determined to be 100%. The concentration IC50 for the 50% binding inhibition was calculated.
# T1 sequence (P13612 34-1032): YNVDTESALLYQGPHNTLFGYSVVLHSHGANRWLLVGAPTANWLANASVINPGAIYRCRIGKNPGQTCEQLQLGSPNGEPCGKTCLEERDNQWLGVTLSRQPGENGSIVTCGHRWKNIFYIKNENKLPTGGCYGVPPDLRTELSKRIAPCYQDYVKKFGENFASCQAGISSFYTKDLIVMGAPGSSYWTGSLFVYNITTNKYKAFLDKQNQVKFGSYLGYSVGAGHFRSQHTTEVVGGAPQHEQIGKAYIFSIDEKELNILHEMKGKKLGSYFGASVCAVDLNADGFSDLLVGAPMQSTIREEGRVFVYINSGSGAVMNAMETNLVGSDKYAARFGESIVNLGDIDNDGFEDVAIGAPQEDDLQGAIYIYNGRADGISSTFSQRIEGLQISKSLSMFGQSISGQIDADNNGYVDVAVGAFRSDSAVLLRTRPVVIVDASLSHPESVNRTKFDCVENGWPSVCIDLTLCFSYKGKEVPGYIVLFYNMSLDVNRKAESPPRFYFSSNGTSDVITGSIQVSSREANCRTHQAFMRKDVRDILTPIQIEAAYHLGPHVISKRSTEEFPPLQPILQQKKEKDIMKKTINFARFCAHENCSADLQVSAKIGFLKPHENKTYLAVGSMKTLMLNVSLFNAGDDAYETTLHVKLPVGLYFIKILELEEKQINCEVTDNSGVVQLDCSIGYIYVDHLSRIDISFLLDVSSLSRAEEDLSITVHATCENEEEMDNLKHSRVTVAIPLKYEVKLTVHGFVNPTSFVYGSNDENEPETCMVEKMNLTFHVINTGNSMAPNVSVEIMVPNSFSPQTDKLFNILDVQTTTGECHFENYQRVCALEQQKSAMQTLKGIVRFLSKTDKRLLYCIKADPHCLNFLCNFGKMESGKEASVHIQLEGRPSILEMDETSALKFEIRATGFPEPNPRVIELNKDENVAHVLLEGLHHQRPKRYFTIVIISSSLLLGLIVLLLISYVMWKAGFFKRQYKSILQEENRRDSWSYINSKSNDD
# T1 sequence (P05556 21-798): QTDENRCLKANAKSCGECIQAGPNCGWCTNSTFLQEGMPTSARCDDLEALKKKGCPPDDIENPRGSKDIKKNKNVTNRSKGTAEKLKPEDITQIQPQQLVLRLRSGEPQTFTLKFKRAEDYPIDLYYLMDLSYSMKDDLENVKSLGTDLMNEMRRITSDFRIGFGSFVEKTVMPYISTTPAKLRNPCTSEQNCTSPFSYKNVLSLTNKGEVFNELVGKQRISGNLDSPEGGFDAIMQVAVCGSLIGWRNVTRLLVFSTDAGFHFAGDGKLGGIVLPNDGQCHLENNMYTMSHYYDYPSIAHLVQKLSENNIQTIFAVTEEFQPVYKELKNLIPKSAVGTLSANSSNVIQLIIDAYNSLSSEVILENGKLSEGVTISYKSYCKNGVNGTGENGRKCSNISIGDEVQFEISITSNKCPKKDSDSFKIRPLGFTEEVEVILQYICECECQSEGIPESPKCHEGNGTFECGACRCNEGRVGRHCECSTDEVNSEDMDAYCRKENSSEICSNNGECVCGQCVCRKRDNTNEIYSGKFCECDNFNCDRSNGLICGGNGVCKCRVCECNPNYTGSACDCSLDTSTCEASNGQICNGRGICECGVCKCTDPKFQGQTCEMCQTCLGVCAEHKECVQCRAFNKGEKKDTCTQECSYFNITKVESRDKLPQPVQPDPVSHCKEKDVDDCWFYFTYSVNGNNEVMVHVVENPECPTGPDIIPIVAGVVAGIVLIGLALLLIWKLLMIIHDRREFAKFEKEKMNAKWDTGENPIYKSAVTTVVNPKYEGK
row,Compound,IC50
1,"O=C(O)[C@H](Cc1ccc(OCc2c(Cl)cccc2Cl)cc1)NC(=O)[C@H]1CC[C@H](C(=O)O)CC1 [Example 2, N-(Trans-4-carboxycyclohexane-1-carbonyl)-O-(2,6-dichlorobenzyl)-L-tyrosine]",5 to 25 µM
2,"O=C(O)[C@H](Cc1ccc(OCc2c(Cl)cccc2Cl)cc1)NC(=O)[C@H]1CC[C@H](C(=O)NNc2ccccc2)CC1 [Example 3, N-(Trans-4-phenylhydrazinocarbonylcyclohexane-1-carbonyl)-O-(2,6-dichlorobenzyl)-L-tyrosine]",25 to 50 µM
3,"O=C(O)[C@H](Cc1ccc(OCc2c(Cl)cccc2Cl)cc1)NC(=O)[C@H]1CC[C@H](C(=O)NNc2ccc(Br)cc2)CC1 [Example 4, N-[Trans-4-(4-bromophenylhydrazinocarbonyl)cyclohexane-1-carbonyl]-O-(2,6-dichlorobenzyl)-L-tyrosine]",25 to 50 µM
4,O=C(O)[C@H](Cc1ccc(OCc2c(Cl)cccc2Cl)cc1)NC(=O)[C@H]1CC[C@H](C(=O)NCc2ccccc2)CC1 [Example 6],25 to 50 µM
5,O=C(O)[C@H](Cc1ccc(OCc2c(Cl)cccc2Cl)cc1)NC(=O)[C@H]1CC[C@H](C(=O)NNc2ccc(OC(F)(F)F)cc2)CC1 [Example 35],25 to 50 µM
6,COc1cccc(NNC(=O)[C@H]2CC[C@H](C(=O)N[C@@H](Cc3ccc(OCc4c(Cl)cccc4Cl)cc3)C(=O)O)CC2)c1 [Example 44],5 to 25 µM
7,"COc1ccc(NNC(=O)[C@H]2CC[C@H](C(=O)N[C@@H](Cc3ccc(NC(=O)c4snnc4-c4ccccc4)cc3)C(=O)O)CC2)cc1 [Example 46, N-[Trans-4-(4-methoxyphenylhydrazinocarbonyl)cyclohexane-1-carbonyl]-4-{[(4-phenyl-1,2,3-thiadiazole-5-yl)carbonyl]amino}-L-phenyl-alanine]",5 to 25 µM

# The next lines start with the values.
row,IC50,Compound
1,1 to 5 µM,COc1ccc(NNC(=O)[C@H]2CC[C@H](C(=O)N[C@@H](Cc3ccc(OCc4c(Cl)cccc4Cl)cc3)C(=O)O)CC2)cc1 [Example 14]
2,1 to 5 µM,Cc1ccc(NNC(=O)[C@H]2CC[C@H](C(=O)N[C@@H](Cc3ccc(OCc4c(Cl)cccc4Cl)cc3)C(=O)O)CC2)cc1 [Example 34]
3,1 to 5 µM,"O=C(Nc1ccc(C[C@H](NC(=O)[C@H]2CC[C@H](C(=O)O)CC2)C(=O)O)cc1)c1snnc1-c1ccccc1 [Example 45, N-(Trans-4-carboxycyclohexane-1-carbonyl)-4-{[(4-phenyl-1,2,3-thiadiazole-5-yl)carbonyl]amino}-L-phenylalanine]"
4,1 to 5 µM,"COc1cccc(OC)c1-c1ccc(C[C@H](NC(=O)[C@H]2CC[C@H](C(=O)O)CC2)C(=O)O)cc1 [Example 50, N-(Trans-4-carboxycyclohexane-1-carbonyl)-4-(2,6-dimethoxyphenyl)-L-phenylalanine]"
5,1 to 5 µM,"COc1ccc(NNC(=O)[C@H]2CC[C@H](C(=O)N[C@@H](Cc3ccc(-c4c(OC)cccc4OC)cc3)C(=O)O)CC2)cc1 [Example 51, N-[Trans-4-(4-methoxyphenylhydrazinocarbonyl)cyclohexane-1-carbonyl]-4-(2,6-dimethoxyphenyl)-L-phenylalanine]"
